Experimental data from patent US20070049620A1, “Cyclic tertiary amine compound” (SANKYO COMPANY, LIMITED, priority 2003, published 2007).

Structure (SMILES) | melting point
CNC(=O)c1ccc([C@@H]2C[C@H]3C=C(c4c[nH]c(-c5ccc(F)cc5)c4-c4ccncc4)CCN3C2)cc1 [Example 53, 2-(4-Fluorophenyl)-4-[(2S,8aS)-2-[4-(N-methylcarbamoyl)phenyl]-1,2,3,5,6,8a-hexahydroindolizin-7-yl]-3-(pyridin-4-yl)-1H-pyrrole] | 171 to 173 °C
CCNC(=O)c1ccc([C@@H]2C[C@H]3C=C(c4c[nH]c(-c5ccc(F)cc5)c4-c4ccncc4)CCN3C2)cc1 [Example 54, 4-[(2S,8aS)-2-[4-(N-Ethylcarbamoyl)phenyl]-1,2,3,5,6,8a-hexahydroindolizin-7-yl]-2-(4-fluorophenyl)-3-(pyridin-4-yl)-1H-pyrrole] | 178 to 180 °C
O=C(NCc1ccccc1)c1ccc([C@@H]2C[C@H]3C=C(c4c[nH]c(-c5ccc(F)cc5)c4-c4ccncc4)CCN3C2)cc1 [Example 55, 4-[(2S,8aS)-2-[4-(N-Benzylcarbamoyl)phenyl]-1,2,3,5,6,8a-hexahydroindolizin-7-yl]-2-(4-fluorophenyl)-3-(pyridin-4-yl)-1H-pyrrole] | 173 to 175 °C
CCCNC(=O)c1ccc([C@@H]2C[C@H]3C=C(c4c[nH]c(-c5ccc(F)cc5)c4-c4ccncc4)CCN3C2)cc1 [Example 58, 2-(4-Fluorophenyl)-4-[(2S,8aS)-2-[4-(N-propylcarbamoyl)phenyl]-1,2,3,5,6,8a-hexahydroindolizin-7-yl]-3-(pyridin-4-yl)-1H-pyrrole] | 190 to 192 °C

Results, then the compound that gave them:

melting point | Structure (SMILES)
200 to 202 °C | O=C(NC1CC1)c1ccc([C@@H]2C[C@H]3C=C(c4c[nH]c(-c5ccc(F)cc5)c4-c4ccncc4)CCN3C2)cc1 [Example 56, 4-[(2S,8aS)-2-[4-(N-Cyclopropylcarbamoyl)phenyl]-1,2,3,5,6,8a-hexahydroindolizin-7-yl]-2-(4-fluorophenyl)-3-(pyridin-4-yl)-1H-pyrrole]
183 to 185 °C | O=C(NCCF)c1ccc([C@@H]2C[C@H]3C=C(c4c[nH]c(-c5ccc(F)cc5)c4-c4ccncc4)CCN3C2)cc1 [Example 57, 4-[(2S,8aS)-2-[4-[N-(2-Fluoroethyl)carbamoyl]phenyl]-1,2,3,5,6,8a-hexahydroindolizin-7-yl]-2-(4-fluorophenyl)-3-(pyridin-4-yl)-1H-pyrrole]
202 to 204 °C | CC(C)NC(=O)c1ccc([C@@H]2C[C@H]3C=C(c4c[nH]c(-c5ccc(F)cc5)c4-c4ccncc4)CCN3C2)cc1 [Example 59, 2-(4-Fluorophenyl)-4-[(2S,8aS)-2-[4-(N-isopropylcarbamoyl)phenyl]-1,2,3,5,6,8a-hexahydroindolizin-7-yl]-3-(pyridin-4-yl)-1H-pyrrole]
166 to 168 °C | COCCNC(=O)c1ccc([C@@H]2C[C@H]3C=C(c4c[nH]c(-c5ccc(F)cc5)c4-c4ccncc4)CCN3C2)cc1 [Example 61, 2-(4-Fluorophenyl)-4-[(2S,8aS)-2-[4-(N-(2-methoxyethyl)carbamoyl)phenyl]-1,2,3,5,6,8a-hexahydroindolizin-7-yl]-3-(pyridin-4-yl)-1H-pyrrole]
